Experimental data as given in article PMC12455397 (Angewandte Chemie (International Ed. in English), 2025).

What was measured:
[1] = system: Nrf2-regulated genes (AKR1B10, NQO1, TRXR1, HO-1) in HaCaT human keratinocytes; assay: HaCaT cell assay, Western Blotting of Nrf2-regulated proteins; assay type: cell-based; conditions: 24 h
[2] = system: Nrf2-regulated genes (AKR1B10, NQO1, TRXR1, HO-1) in HaCaT human keratinocytes; assay: HaCaT cell assay, RT-qPCR of Nrf2-regulated genes; assay type: cell-based; conditions: WT HaCaT, 3, 1 and 0.33 µM, 5 h, normalized to TBP
[3] = system: NQO1 mRNA in BEAS-2B cells; assay: qPCR-based BEAS-2B cell assay (NQO1 mRNA); set-up: species or system human; conditions: Homo sapiens, BEAS-2B, mean ± SEM, 2-4 independent experiments
Description: RT-qPCR were stimulated with compounds or DMSO diluted in DMEM and incubated for 24 h. DMSO was added accordingly to highest percentage compound volume added.
Upon 24 hour compound stimulation, the cells were trypsinized, washed, spun down and resuspended in 70 μL of ice-cold Pierce RIPA lysis buffer (Thermo Scientific) supplemented with 10 mM NaF, 1× complete protease cocktail inhibitor (Roche), and 5 IU mL-1 benzonase (Sigma), respectively. The protein concentrations were determined using the BCA protein assay kit (Thermo Scientific) and samples was equalized accordingly to the sample of lowest protein concentration. 1×XT sample buffer (Bio-Rad) and 1×XT reducing agent (Bio-Rad) were added to the samples, and lysates were denatured by boiling for 5 min at 95 °C. Denatured samples was separated by SDS-PAGE on a 4–20% Criterion TGX precast gradient gel (Bio-Rad). The gel ran initially for 20 min at 70 V and 45 min at 120 V and was then transferred onto a PVDF membrane (Bio-Rad) using a Trans-Blot Turbo transfer system. […]
Upon 5 hour compound stimulation, RNA was extracted from the cells using the High Pure RNA Isolation Kit (Roche, 11828665001) according to the manufacturer’s instructions. […] The quality and purity of the RNAs were assessed by Nanodrop spectrometry (DeNovix DS-11). Using the TaqMan detection systems, the gene expression of HO-1 (HMOX-1), NQO1, AKR1B10, and TRXR1 was determined by real-time PCR. […] The commercially available TaqMan assay (Thermo Fischer Scientific, cat. no. 4392938) was used, and samples were analyzed in a final volume of 10 μL reaction mix containing 5 μL of master mix, 0.2 μL of RT enzyme, 2.3 μL of nuclease-free water, […] (TATA-Box Binding Protein/TBP; […]
Hs00917067_m1, Thermo Fisher), and 2 μL of pure RNA. The samples were analyzed using a QuantStudioTM 3 real-time PCR instrument with the following program: 1 × (10 min, 48.0 °C; 10 min, 95.0 °C); 40 × (30 s, 95.0 °C; 1 min, 60.0 °C). […]
The upregulation of NQO1 mRNA in BEAS-2B cells was measured by qPCR, as previously described.[20] […]

[4] = system: NLRP3 inflammasome in macrophage-derived THP-1 cells; assay: NLRP3 inflammasome / TLR4 activation in THP-1 macrophages (WB, ELISA); assay type: cell-based; conditions: 100 µM, 24 h
[5] = system: cGAS-STING pathway in macrophage-derived THP-1 cells; assay: cGAS-STING pathway in THP-1 macrophages (WB); assay type: cell-based; conditions: 100 µM, 24 h; cGAMP 4 µg/mL 6 h
[6] = system: IFN signalling in macrophage-derived THP-1 cells; assay: Type I IFN signalling after IFNβ stimulation in THP-1 macrophages (WB); assay type: cell-based; conditions: 100 µM, 24 h; IFNβ 500 U/mL 1 h
[7] = system: Nrf2 KO THP1 cells differentiated into macrophages; assay: RNA sequencing transcriptome analysis, Nrf2 KO THP-1 macrophages; assay type: cell-based; conditions: 12 h, CDDO-Me 0.1 µM, DMF, 24, 28 10 µM, KI-696 1 µM
[8] = system: THP1 cells; assay type: cell-based; conditions: THP-1 WT, 10 and 100 µM, 48 h
[9] = system: differentiated THP1 macrophages (WT)
[10] = molecular target: human Keap1 Kelch (Homo sapiens, UniProt Q14145); assay: Fluorescence polarization (FP) competition assay with Cy5-Nrf2 peptide probe; conditions: for Ki: ≥3 individual measurements
[11] = LPS or LPS+nigericin stimulation
[12] = WT, 12 h, CDDO-Me 0.1 µM, SFN, DMF, 24, 28 10 µM, KI-696 1 µM, NS = not significant

Sequence of human Keap1 Kelch (Q14145 321-609): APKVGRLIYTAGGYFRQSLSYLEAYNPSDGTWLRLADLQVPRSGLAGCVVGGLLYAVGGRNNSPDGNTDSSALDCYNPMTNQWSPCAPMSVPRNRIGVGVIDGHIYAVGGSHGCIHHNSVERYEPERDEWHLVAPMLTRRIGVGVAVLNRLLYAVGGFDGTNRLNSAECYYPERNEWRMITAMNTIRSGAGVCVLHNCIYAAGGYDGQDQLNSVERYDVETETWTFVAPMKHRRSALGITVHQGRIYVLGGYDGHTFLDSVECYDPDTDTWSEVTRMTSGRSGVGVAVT

CYP1B1 FC ([9]; Table S3, THP-1, 12 h): 1,14 fold | Ki ([10]; FP (Ki/nM), Table S2, mean ± SEM, NA: not active (measured up to 4 mM)): 10.1 ± 1.4 nM | Ki ([10]; Ki (FP), mean, text and figures): 10 nM | fold difference in affinity (FP) between the enantiomers of 24 ([10]; Peak 1 vs Peak 2 after chiral HPLC separation): 14 fold | ligand efficiency (LE) ([10]; from FP Ki): 0.30
Compound: Cc1cc2c(cc1C(CC(=O)O)c1ccc3ccc(OCC(=O)NC4CCCCCC4)cc3c1)OCO2 (stereo not shown) [Compound 24]
protein levels of Nrf2-regulated genes by WB ([1]; HaCaT, 10 µM): strong bands in WB for all tested proteins | relative cell potency among the six compounds (WB) ([1]; HaCaT, 10, 3, 1 µM): most potent | target gene mRNA expression (RT-qPCR) [2]: several‐fold increases in target gene mRNA expression | EC50 [3]: 110 nM | NLRP3 inflammasome activation: release of cleaved caspase-1 and cleaved IL-1β in supernatants (WB) [4]: markedly decreased NLRP3 inflammasome activation | cleavage of gasdermin D (GSDMD) (WB) [4]: prevented the cleavage of gasdermin D | IL-1β release (ELISA) following NLRP3 activation ([4]; LPS 100 ng/mL 3 h + nigericin 10 µM 1 h): confirmed a decrease | IL-1β release (ELISA) following high concentrations of LPS ([4]; LPS 2 µg/mL 6 h): no statistical difference was observed | expression of NLRP3 (WB) [4, 11]: markedly reduced | total protein levels of pro-IL-1β (WB) [4, 11]: also reduced | ISG15 levels (WB) [5]: reduced levels | total STING levels and STING activation (phosphorylated STING and TBK1) (WB) [5]: reduced total STING levels and STING activation | IFN signalling (phosphorylated STAT1, IFIT1 protein levels) (WB) [6]: did not affect IFN signalling | number of up- or downregulated genes in Nrf2 KO cells [7]: 347 genes | cell viability [8]: did not reduce cell viability | AKR1B10 FC ([9]; Table S3, THP-1, 12 h): 6,62 fold | CASP1 FC ([9]; Table S3, THP-1, 12 h): 0,65 fold | COL1A1 FC ([9]; Table S3, THP-1, 12 h): 1,40 fold | COL4A1 FC ([9]; Table S3, THP-1, 12 h): 1,16 fold | COL4A2 FC ([9]; Table S3, THP-1, 12 h): 1,10 fold | GPX1 FC ([9]; Table S3, THP-1, 12 h): 0,60 fold | GPX4 FC ([9]; Table S3, THP-1, 12 h): 1,13 fold | IFNAR1 FC ([9]; Table S3, THP-1, 12 h): 0,93 fold | IFNAR2 FC ([9]; Table S3, THP-1, 12 h): 1,00 fold | IFNGR1 FC ([9]; Table S3, THP-1, 12 h): 0,63 fold | IFNGR2 FC ([9]; Table S3, THP-1, 12 h): 0,73 fold | IL1B FC ([9]; Table S3, THP-1, 12 h): 0,85 fold | IRF3 FC ([9]; Table S3, THP-1, 12 h): 0,96 fold | LAMB1 FC ([9]; Table S3, THP-1, 12 h): 5,65 fold | LAMB4 FC ([9]; Table S3, THP-1, 12 h): 4,43 fold | MMP8 FC ([9]; Table S3, THP-1, 12 h): 0,79 fold | MMP9 FC ([9]; Table S3, THP-1, 12 h): 0,91 fold | MMP12 FC ([9]; Table S3, THP-1, 12 h): 0,51 fold | NLRP3 FC ([9]; Table S3, THP-1, 12 h): 0,79 fold | NOD2 FC ([9]; Table S3, THP-1, 12 h): 0,35 fold | NOXA1 FC ([9]; Table S3, THP-1, 12 h): 0,41 fold | SOCS1 FC ([9]; Table S3, THP-1, 12 h): 2,11 fold | SOCS3 FC ([9]; Table S3, THP-1, 12 h): 2,26 fold | SOD1 FC ([9]; Table S3, THP-1, 12 h): 0,41 fold | SOD2 FC ([9]; Table S3, THP-1, 12 h): 0,59 fold | STAT1 FC ([9]; Table S3, THP-1, 12 h): 0,82 fold | TBK1 FC ([9]; Table S3, THP-1, 12 h): 0,86 fold | TLR4 FC ([9]; Table S3, THP-1, 12 h): 1,17 fold | TNFRSF1B FC ([9]; Table S3, THP-1, 12 h): 1,08 fold | TRAP1 FC ([9]; Table S3, THP-1, 12 h): 0,82 fold | cGAS FC ([9]; Table S3, THP-1, 12 h): 1,36 fold | KEGG pathway analysis of upregulated genes ([9]; WT, 10 µM, 12 h): activated other important gene clusters involved in cytokine receptor interaction and activation of immune cells | Average FC of upregulated Nrf2-dependent genes ([9]; WT, 12 h, CDDO-Me 0.1 µM, SFN, DMF, 24, 28 10 µM, KI-696 1 µM): 2.7 fold | GCLM fold change vs vehicle [9, 12]: 3.0 fold | HMOX1 fold change vs vehicle [9, 12]: 2.2 fold | SRXN1 fold change vs vehicle [9, 12]: 2.5 fold | TXNRD1 fold change vs vehicle [9, 12]: 2.9 fold | NQO1 upregulation at 24 h ([9]; WT, 24 h, 10 µM (footnote * of Figure 7c)): 1.5 fold
